Assay results: patent US20250320206A1, “STAT6 DEGRADERS” (Gilead Sciences, Inc., priority 2024, published 2025)

How the values were obtained:
[1] = tested on: Eotaxin-3 release in human whole blood stimulated with IL-4; assay: Human Whole Blood Eotaxin-3 Assay (IL-4 stimulated eotaxin-3 release); type: cell-based; settings: IL-4 stimulation, 48 h, values given for compounds with >80% Emax, geometric mean
Summary of the method: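 Eotaxin-3 (CCL26) release measured by MSD kit in plasma supernatant after 48 h IL-4 stimulation ([…]) of human whole blood. Compounds added in triplicate 4-fold dilutions 2 h before stimulation; 0.5% DMSO final, 37° C, 5% CO2.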

STAT6 = molecular target: T1, STAT6 (Homo sapiens, UniProt P42226); assay: Stat6 Degrader Assay (HiBiT based, HeLa LgBiT clone 4.14); type: cell-based; settings: HeLa LgBiT clone 4.14 HiBiT-STAT6, 4-24 h incubation; values given for compounds with >80% Emax; geometric mean; read-out: STAT6 degradation DC50
T1 construct: These cells express endogenous STAT6; host or cells: HeLa LgBiT clone 4.14
T1 sequence (P42226 1-847): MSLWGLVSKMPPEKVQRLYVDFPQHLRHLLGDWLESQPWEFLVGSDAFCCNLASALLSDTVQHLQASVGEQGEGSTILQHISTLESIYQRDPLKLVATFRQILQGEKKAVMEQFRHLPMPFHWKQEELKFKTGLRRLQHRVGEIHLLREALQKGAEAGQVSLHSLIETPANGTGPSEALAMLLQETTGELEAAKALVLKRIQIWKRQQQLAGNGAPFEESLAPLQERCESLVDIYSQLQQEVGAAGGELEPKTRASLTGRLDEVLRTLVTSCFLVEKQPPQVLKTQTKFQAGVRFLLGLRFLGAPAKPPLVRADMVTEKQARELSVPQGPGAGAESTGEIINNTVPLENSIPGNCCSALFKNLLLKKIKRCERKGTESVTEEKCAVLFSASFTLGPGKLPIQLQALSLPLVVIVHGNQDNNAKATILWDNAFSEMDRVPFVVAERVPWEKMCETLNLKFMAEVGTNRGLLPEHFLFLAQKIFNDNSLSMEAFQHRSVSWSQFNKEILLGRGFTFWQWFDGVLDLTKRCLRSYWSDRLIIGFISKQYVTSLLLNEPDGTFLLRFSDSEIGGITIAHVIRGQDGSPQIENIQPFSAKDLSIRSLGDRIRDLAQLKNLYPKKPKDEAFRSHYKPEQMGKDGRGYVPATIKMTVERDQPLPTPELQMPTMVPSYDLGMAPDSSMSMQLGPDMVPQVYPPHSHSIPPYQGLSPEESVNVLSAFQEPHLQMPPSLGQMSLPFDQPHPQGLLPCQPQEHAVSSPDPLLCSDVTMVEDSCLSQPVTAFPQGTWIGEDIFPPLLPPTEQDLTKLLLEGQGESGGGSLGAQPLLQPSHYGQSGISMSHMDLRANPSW
Summary of the method: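 Luminescence from HiBiT-STAT6 complementing stably expressed LgBiT in HeLa clone 4.14 reports remaining STAT6 protein. Cells (5000/well) exposed to compound for 4-24 h at 37° C; read 0.5 h after Nano-Glo addition. 100% degradation window set with 50 μM terfenadine; percent degradation plotted against concentration.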

Structure (SMILES) | EC50 [1] [nM] | DC50 (STAT6) [nM]
CNc1ccn(-c2ccnc3c2cc([C@H](C)N2CC=C(c4c(C)cc(C(=O)N5CCC(CN6CCN(c7ccc8c(c7)C(C)(C)C(=O)N8C7CCC(=O)NC7=O)CC6)CC5)cc4F)CC2)n3C)c(=O)c1 (stereo partly drawn) [Example 3u304, 3-(5-(4-((1-(3-fluoro-5-methyl-4-(1-((S)-1-(1-methyl-4-(4-(methylamino)-2-oxopyridin-1 (2H)-yl)-1H-pyrrolo[2,3-b]pyridin-2-yl)ethyl)-1,2,3,6-tetrahydropyridin-4-yl)benzoyl)piperidin-4-yl)methyl)piperazin-1-yl)-3,3-dimethyl-2-oxoindolin-1-yl)piperidine-2,6-dione] | 10.8 | 6.5
C[C@H]1CN(Cc2ccc3c(c2)C(C)(C)C(=O)N3C2CCC(=O)NC2=O)CCN1CC1CCN(C(=O)c2ccc(C3CCN([C@@H](C)c4cc5c(-n6ccc7c(c6=O)CCN7)ccnc5n4C)CC3)cc2)CC1 (stereo partly drawn) [Example 3u184, 3-(3,3-dimethyl-5-(((S)-3-methyl-4-((1-(4-(1-((S)-1-(1-methyl-4-(4-oxo-1,2,3,4-tetrahydro-5H-pyrrolo[3,2-c]pyridin-5-yl)-1H-pyrrolo[2,3-b]pyridin-2-yl)ethyl)piperidin-4-yl)benzoyl)-piperidin-4-yl)methyl)piperazin-1-yl)methyl)-2-oxoindolin-1-yl)piperidine-2,6-dione] | 7 | 2.4
CNc1ccn(-c2ccnc3c2cc([C@H](C)N2CC=C(c4c(C)cc(C(=O)N5CCC(CN6CCN(Cc7ccc8c(c7)n(C)c(=O)n8C7CCC(=O)NC7=O)C[C@@H]6C)CC5)cc4F)CC2)n3C)c(=O)c1 (stereo partly drawn) [Example 3u32, 3-(5-(((S)-4-((1-(3-fluoro-5-methyl-4-(1-((S)-1-(1-methyl-4-(4-(methylamino)-2-oxopyridin-1 (2H)-yl)-1H-pyrrolo[2,3-b]pyridin-2-yl)ethyl)-1,2,3,6-tetrahydropyridin-4-yl)benzoyl)-piperidin-4-yl)methyl)-3-methylpiperazin-1-yl)methyl)-3-methyl-2-oxo-2,3-dihydro-1H-benzo[d]-imidazol-1-yl)piperidine-2,6-dione] | 0.3 | 0.2
CNc1cc(=O)n(-c2ccnc3c2cc(CN2CCC(c4c(F)cc(C(=O)N5CCC(CN6CCN(Cc7ccc8c(c7)n(C)c(=O)n8[C@@H]7CCC(=O)NC7=O)CC6)CC5)cc4F)CC2)n3C)cc1F (single isomer, unassigned) [Example 3u28] | 24.3 | 2.9
CNc1ccn(-c2ccnc3c2cc([C@H](C)N2CC=C(c4c(C)cc(C(=O)N5CCC(CN6CCN(Cc7ccc8c(c7)C7(CC7)C(=O)N8C7CCC(=O)NC7=O)C[C@@H]6C)CC5)cc4F)CC2)n3C)c(=O)n1 (stereo partly drawn) [Example 3u125, 3-(5′-(((S)-4-((1-(3-fluoro-5-methyl-4-(1-((S)-1-(1-methyl-4-(4-(methylamino)-2-oxopyrimidin-1 (2H)-yl)-1H-pyrrolo[2,3-b]pyridin-2-yl)ethyl)-1,2,3,6-tetrahydropyridin-4-yl)benzoyl)piperidin-4-yl)methyl)-3-methylpiperazin-1-yl)methyl)-2′-oxospiro[cyclopropane-1,3′-indolin]-1′-yl)piperidine-2,6-dione] | 0.6 | 0.8
CNc1ccn(-c2ccnc3c2cc([C@H](C)N2CC=C(c4c(F)cc(C(=O)N5CCC(CN6CCN(Cc7ccc8c(c7)C(C)(C)C(=O)N8[C@@H]7CCC(=O)NC7=O)C[C@@H]6C)CC5)cc4F)CC2)n3C)c(=O)c1 (single isomer, unassigned) [Example 3u203] | 5.2 | 3.4
CNc1cc(=O)n(-c2ccnc3c2cc([C@H](C)N2CC=C(c4c(C)cc(C(=O)N5CCC(CN6CCN(Cc7ccc8c(c7)C7(CC7)C(=O)N8[C@H]7CCC(=O)NC7=O)C[C@@H]6C)CC5)cc4F)CC2)n3C)cc1F (single isomer, unassigned) [Example 3u99] | 1.7 | 1.1
CNc1ccn(-c2ccnc3c2cc(CN2CCC(c4c(F)cc(C(=O)N5CCC(CN6CCN(Cc7ccc8c(c7)C(C)(C)C(=O)N8[C@@H]7CCC(=O)NC7=O)CC6)CC5)cc4F)CC2)n3C)c(=O)c1 (single isomer, unassigned) [Example 3u18] | 18.6 | 8.4
CNc1ccn(-c2ccnc3c2cc(CN2CCC(c4c(F)cc(C(=O)N5CCC(CN6CCN(Cc7cc8c(cc7F)N([C@H]7CCC(=O)NC7=O)C(=O)C87CC7)CC6)CC5)cc4F)CC2)n3C)c(=O)c1 (single isomer, unassigned) [Example 3u43] | 9.1 | 8.5
CNc1ccn(-c2ccnc3c2cc([C@H](C)N2CC=C(c4c(C)cc(C(=O)N(C)c5ccc(C6CCN(Cc7ccc8c(c7)C(C)(C)C(=O)N8C7CCC(=O)NC7=O)CC6)cc5)cc4F)CC2)n3C)c(=O)c1 (stereo partly drawn) [Example 3u232, N-(4-(1-((1-(2,6-dioxopiperidin-3-yl)-3,3-dimethyl-2-oxoindolin-5-yl)methyl)-piperidin-4-yl)phenyl)-3-fluoro-N,5-dimethyl-4-(1-((S)-1-(1-methyl-4-(4-(methylamino)-2-oxopyridin-1 (2H)-yl)-1H-pyrrolo[2,3-b]pyridin-2-yl)ethyl)-1,2,3,6-tetrahydropyridin-4-yl)benzamide] | 0.8 | 0.1
C[C@H]1CN(Cc2ccc3c(c2)n(C2CC2)c(=O)n3C2CCC(=O)NC2=O)CCN1CC1CCN(C(=O)c2cc(F)c(C3CCN(Cc4cc5c(-n6ccc7c(c6=O)CCN7)ccnc5n4C)CC3)c(F)c2)CC1 (stereo partly drawn) [Example 3u106, 3-(3-cyclopropyl-5-(((S)-4-((1-(3,5-difluoro-4-(1-((1-methyl-4-(4-oxo-1,2,3,4-tetrahydro-5H-pyrrolo[3,2-c]pyridin-5-yl)-1H-pyrrolo[2,3-b]pyridin-2-yl)methyl)piperidin-4-yl)benzoyl)piperidin-4-yl)methyl)-3-methylpiperazin-1-yl)methyl)-2-oxo-2,3-dihydro-1H-benzo[d]imidazol-1-yl)piperidine-2,6-dione] | 0.8 | 2.3
CNc1ccn(-c2ccnc3c2cc([C@H](C)N2CC=C(c4c(F)cc(C(=O)N5CCC(CN6CCN(Cc7ccc8c(c7)n(C7CC7)c(=O)n8[C@@H]7CCC(=O)NC7=O)C[C@@H]6C)CC5)cc4F)CC2)n3C)c(=O)c1 (single isomer, unassigned) [Example 3u212] | 0.8 | 7.5
CNc1ccn(-c2ccnc3c2cc(CN2CC=C(c4c(F)cc(C(=O)N5CCC(CN6CCN(Cc7ccc8c(c7)n(C7CC7)c(=O)n8[C@@H]7CCC(=O)NC7=O)C[C@@H]6C)CC5)cc4F)CC2)n3C)c(=O)c1 (single isomer, unassigned) [Example 3u73] | 2.4 | 6.8
CNc1ccn(-c2ccnc3c2cc([C@H](C)N2CC=C(c4c(C)cc(C(=O)N5CCC(CN6CCN(Cc7cc8c(cc7F)N(C7CCC(=O)NC7=O)C(=O)C87CC7)C[C@@H]6C)CC5)cc4F)CC2)n3C)c(=O)c1 (stereo partly drawn) [Example 3u193, 3-(6′-fluoro-5′-(((S)-4-((1-(3-fluoro-5-methyl-4-(1-((S)-1-(1-methyl-4-(4-(methyl-amino)-2-oxopyridin-1 (2H)-yl)-1H-pyrrolo[2,3-b]pyridin-2-yl)ethyl)-1,2,3,6-tetrahydropyridin-4-yl)benzoyl)piperidin-4-yl)methyl)-3-methylpiperazin-1-yl)methyl)-2′-oxospiro[cyclopropane-1,3′-indolin]-1′-yl)piperidine-2,6-dione] | 2.4 | 1.9
CNc1cc(=O)n(-c2ccnc3c2cc(CN2CC=C(c4c(F)cc(C(=O)N5CCC(CN6CCN(Cc7ccc8c(c7)n(C)c(=O)n8[C@H]7CCC(=O)NC7=O)C[C@@H]6C)CC5)cc4F)CC2)n3C)cc1F (single isomer, unassigned) [Example 3u56] | 3.5 | 8.7
CNc1cc(=O)n(-c2ccnc3c2cc([C@H](C)N2CC=C(c4c(C)cc(C(=O)N5CCC(CN6CCN(Cc7ccc8c(c7)n(C7CC7)c(=O)n8C7CCC(=O)NC7=O)C[C@@H]6C)CC5)cc4F)CC2)n3C)cc1F (stereo partly drawn) [Example 3u118, 3-(3-cyclopropyl-5-(((S)-4-((1-(3-fluoro-4-(1-((S)-1-(4-(5-fluoro-4-(methylamino)-2-oxopyridin-1 (2H)-yl)-1-methyl-1H-pyrrolo[2,3-b]pyridin-2-yl)ethyl)-1,2,3,6-tetrahydropyridin-4-yl)-5-methylbenzoyl)piperidin-4-yl)methyl)-3-methylpiperazin-1-yl)methyl)-2-oxo-2,3-dihydro-1H-benzo[d]imidazol-1-yl)piperidine-2,6-dione] | 2.2 | 1.2
